Converted amounts (≈) assume the structure as drawn.
Tests used:
[1] = Clinical infusion bag compatibility; assay type: physicochemical
Procedure: A standard mini-infusion bag (100 mL) was subjected to material compatibility testing with the following formulation:
The developed brincidofovir formulation (15 mg/mL brincidofovir, 200 mM sodium phosphate, pH=8.0) was diluted to c(BCV)=0.1 and c(BCV)=1.0 mg/mL by injection into the infusion bags. The infusion bags were then stored at ambient conditions, and samples were collected from the infusion bags at the time points (t0, t1h, t8h, and t24h) for assessments of appearance, pH, and c(BCV). As a control, the 5% dextrose solution was removed from a separate infusion bag, and external dilutions (standard laboratory glassware) of the testing formulation with the 5% dextrose solution were performed applying identical dilution factors. Samples of the external diluted solution were likewise analyzed.
Solutions of Formulation 3a, in a 5% dextrose injection vehicle, were prepared at two different formulation strengths (1.0 mg/mL and 0.1 mg/mL brincidofovir), and stored in the infusion bag at ambient conditions. Samples form the infusion bags and from an externally diluted standard were evaluated for appearance, pH and brincidofovir recovery (determined via HPLC) at the beginning of the study (t0), after 8 h (t8h), and after 24 h (t24h).

rat whole blood = assay: Hemolytic potential, cyanmethemoglobin method, rat whole blood; assay type: cell-based; settings: for Estimated % Hemolysis: based on normal rat hemoglobin 13 g/dL; for Mean HgB Concentration: interference control, Phase 1
Procedure: Each concentration of test item for the rat was mixed separately in a 1:4 ratio with rat whole blood while each concentration of test item for the human was mixed separately in a 1:4 ratio with human whole blood. These samples plus control samples [vehicle control (vehicle+whole blood, 1 for rat and 1 for humans), positive control (1% Saponin+whole blood), untreated whole blood control and negative control (saline+whole blood) were analyzed for hemolysis (supernatant hemoglobin concentration).
(§1) The rat and human whole blood samples were incubated in test or control items at 37±1° C. for 20 minutes and then immediately (within 2 minutes) centrifuged at 3500±100 rpm (2740 g) at room temperature for 5-10 minutes. The supernatant was extracted and subjected to a hemoglobin analysis using the cyanmethemoglobin method employed on the Siemens Advia 120 hematology analyzer. If the test item has a potential for causing hemolysis, then hemoglobin released from lysed red blood cells into the plasma supernatant can be quantified via the reaction of heme iron in solution being oxidized from a ferrous to a ferric state in the presence of potassium cyanide. The reaction results in the formation of methemoglobin, which then combines with cyanide to form a stable cyanmethemoglobin. When measured spectrophotometrically at 546 nm the absorbance of cyanmethemoglobin follows Beer's Law and is directly proportional to the concentration of hemoglobin released into solution.
as §1, with “Without wishing to be bound by theory, if” for “If”

[2] = Brincidofovir equilibrium solubility in formulation vehicles; assay type: physicochemical
Procedure: The recovery of brincidofovir in the sample supernatant was determined at different time points to establish when the solubility equilibrium was reached. Two samples of vehicle #57, were saturated with brincidofovir. […] Consequently, the pH had to be brought up close to the target pH before more brincidofovir was added.

[3] = PBMC PK of CDV-PP following IV and oral suspension BCV; assay type: in vivo, human; settings: BCV 50 mg, 2- or 4-h IV infusion
Procedure: Two single dose BCV studies in healthy subjects contributed data for this analysis. The first study was a 2-period crossover bioequivalence study that enrolled 24 subjects who received two formulations of BCV oral suspension 100 mg fasted, one in each period. Data from 12 subjects who had PBMCs collected in Period 1 were included in this analysis; these subjects were 100% female, 31-59 years, and 58-88 kg. The second study, outlined above, enrolled 40 subjects who received IV BCV or placebo. Data from 18 subjects who received BCV 50 mg as either a 2-h or 4-h IV infusion were included in this analysis; these subjects were 100% male, 18-46 years, 64-106 kg. Serial PBMC samples were collected over 14 days and assayed by HPLC-MS-MS. PBMC CDV-PP PK parameters were determined by non-compartmental analysis.

[4] = c(BCV) 0.1 mg/mL in infusion bag, t0
[5] = c(BCV) 0.1 mg/mL in infusion bag, t1 h
[6] = c(BCV) 0.1 mg/mL in infusion bag, t8 h
[7] = c(BCV) 0.1 mg/mL in infusion bag, t24 h
[8] = c(BCV) 0.1 mg/mL, external dilution
[9] = c(BCV) 1.0 mg/mL in infusion bag, t0
[10] = c(BCV) 1.0 mg/mL in infusion bag, t1 h
[11] = c(BCV) 1.0 mg/mL in infusion bag, t8 h
[12] = c(BCV) 1.0 mg/mL in infusion bag, t24 h
[13] = c(BCV) 1.0 mg/mL, external dilution

With `CCCCCCCCCCCCCCCCOCCCOP(=O)(O)CO[C@H](CO)Cn1ccc(N)nc1=O` [Brincidofovir] the Appearance [1, 4] was “Clear,”, the “Measured pH” value [1, 4] was 7.9 and the “Observed c(BCV)” value [1, 4] was 0.092 mg/mL. For the same compound, the Appearance [1, 5] was “Clear,”, the “Measured pH” value [1, 5] was 7.9 and the “Observed c(BCV)” value [1, 5] was 0.093 mg/mL. For the same compound, the Appearance [1, 6] was “Clear,”, the “Measured pH” value [1, 6] was 7.9 and the “Observed c(BCV)” value [1, 6] was 0.093 mg/mL. For the same compound, the Appearance [1, 7] was “Clear,”, the “Measured pH” value [1, 7] was 7.9 and the “Observed c(BCV)” value [1, 7] was 0.093 mg/mL. For the same compound, the Appearance [1, 8] was “Clear,”, the “Measured pH” value [1, 8] was 7.9 and the “Observed c(BCV)” value [1, 8] was 0.098 mg/mL. The Appearance [1, 9] was “Clear,”, the “Measured pH” value [1, 9] was 8.2 and the “Observed c(BCV)” value [1, 9] was 0.87 mg/mL. For the same compound, the Appearance [1, 10] was “Clear,”, the “Measured pH” value [1, 10] was 8.2 and the “Observed c(BCV)” value [1, 10] was 0.87 mg/mL. The Appearance [1, 11] was “Clear,”, the “Measured pH” value [1, 11] was 8.2 and the “Observed c(BCV)” value [1, 11] was 0.87 mg/mL. The Appearance [1, 12] was “Clear,”, the “Measured pH” value [1, 12] was 8.1 and the “Observed c(BCV)” value [1, 12] was 0.86 mg/mL. For the same compound, the Appearance [1, 13] was “Clear,”, the “Measured pH” value [1, 13] was 8.2 and the “Observed c(BCV)” value [1, 13] was 0.94 mg/mL. For the same compound, the “Brincidofovir concentration with in vitro evidence of hemolysis” value (rat whole blood) was “above 0.75 mg/mL”, the Hemolysis classification (rat whole blood; 0.2 mg/mL) was “non-hemolytic (Formulations with a hemolysis value of <10% are considered to be non-hemolytic)” and the Calculated % hemolysis (rat whole blood; 0.5 mg/mL ([…])) was 2.4%. For the same compound, the Calculated % hemolysis (rat whole blood; 1.6 mg/mL ([…])) was 13.0%, the Hemolysis classification (rat whole blood; 0.5 and 1.6 mg/mL) was “not considered a hemolytic risk” and the “Estimated % Hemolysis” value (rat whole blood; Tube 1B: Test Item (0.5 mg/mL) + rat whole blood) was 2.4%. The “Estimated % Hemolysis” value (rat whole blood; Tube 1C: Test Item (1.6 mg/mL) + rat whole blood) was 13.0%, the “Mean HgB Concentration” value (rat whole blood; Tube 2A: Test Item (0.2 mg/mL) + saline) was 0.0 g/dL and the “Mean HgB Concentration” value (rat whole blood; Tube 2B: Test Item (0.5 mg/mL) + saline) was 0.0 g/dL. The “Mean HgB Concentration” value (rat whole blood; Tube 2C: Test Item (1.6 mg/mL) + saline) was 0.0 g/dL, the solubility thermodynamic ([2]; pH 6.9, thermodynamic from solid) was roughly 25 mg/mL (≈ 44.5 mM) and the solubility thermodynamic ([2]; pH 8, thermodynamic from solid) was greater than 270 mg/mL. The “Intracellular CDV-PP exposure vs BCV 100 mg oral suspension” value [3] was “comparable”.

Reference: patent US20170368082A1, “FORMULATIONS OF BRINCIDOFOVIR” (priority 2016, published 2017)
